From ChEMBL document CHEMBL3991601, “The target landscape of clinical kinase drugs” (Science, 2017) come the findings set out here.

The target of experiment [1] is T1, Very long-chain specific acyl-CoA dehydrogenase, mitochondrial (Homo sapiens, UniProt P49748).
T1 sequence (P49748 whole entry): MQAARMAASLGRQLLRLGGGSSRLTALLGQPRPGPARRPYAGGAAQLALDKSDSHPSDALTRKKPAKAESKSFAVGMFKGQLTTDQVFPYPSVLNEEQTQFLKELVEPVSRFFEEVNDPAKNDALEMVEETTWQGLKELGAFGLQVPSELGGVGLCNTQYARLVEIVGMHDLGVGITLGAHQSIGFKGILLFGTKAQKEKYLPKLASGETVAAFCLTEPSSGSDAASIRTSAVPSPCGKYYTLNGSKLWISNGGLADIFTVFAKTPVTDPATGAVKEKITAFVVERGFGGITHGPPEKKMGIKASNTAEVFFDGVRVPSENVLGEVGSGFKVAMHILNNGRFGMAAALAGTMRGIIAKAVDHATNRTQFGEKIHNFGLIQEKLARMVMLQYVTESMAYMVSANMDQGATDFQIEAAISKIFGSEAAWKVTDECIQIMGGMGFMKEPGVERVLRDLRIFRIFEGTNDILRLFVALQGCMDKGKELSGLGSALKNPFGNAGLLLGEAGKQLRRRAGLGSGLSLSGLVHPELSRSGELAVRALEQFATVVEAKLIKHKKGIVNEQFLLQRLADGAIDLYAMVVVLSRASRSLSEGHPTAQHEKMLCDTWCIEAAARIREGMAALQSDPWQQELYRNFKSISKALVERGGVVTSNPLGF

The target in experiment [2] is T2, ATP-dependent RNA helicase DDX1 (Homo sapiens, UniProt Q92499).
T2 sequence (Q92499 whole entry): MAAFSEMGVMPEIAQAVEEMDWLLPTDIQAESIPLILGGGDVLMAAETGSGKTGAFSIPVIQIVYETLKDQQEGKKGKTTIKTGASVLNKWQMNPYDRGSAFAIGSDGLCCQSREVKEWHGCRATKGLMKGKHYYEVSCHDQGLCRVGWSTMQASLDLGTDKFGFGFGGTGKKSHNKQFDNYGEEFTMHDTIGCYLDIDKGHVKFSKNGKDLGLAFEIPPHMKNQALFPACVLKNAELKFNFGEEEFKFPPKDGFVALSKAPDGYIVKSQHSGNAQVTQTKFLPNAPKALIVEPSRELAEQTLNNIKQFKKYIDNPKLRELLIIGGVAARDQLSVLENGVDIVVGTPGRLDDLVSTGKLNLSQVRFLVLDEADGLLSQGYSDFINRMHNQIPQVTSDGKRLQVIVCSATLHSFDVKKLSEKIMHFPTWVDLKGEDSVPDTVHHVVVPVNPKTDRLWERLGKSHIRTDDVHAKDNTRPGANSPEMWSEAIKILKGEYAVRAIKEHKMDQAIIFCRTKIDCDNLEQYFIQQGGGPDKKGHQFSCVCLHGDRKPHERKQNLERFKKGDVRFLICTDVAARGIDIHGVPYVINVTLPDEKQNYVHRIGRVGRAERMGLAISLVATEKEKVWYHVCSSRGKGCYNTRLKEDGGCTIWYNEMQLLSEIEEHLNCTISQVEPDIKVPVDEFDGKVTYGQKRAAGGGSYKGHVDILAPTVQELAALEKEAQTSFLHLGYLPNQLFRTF

Experiment [3] deals with DnaJ homolog subfamily A member 1 (Homo sapiens, UniProt P31689).
Chain of DnaJ homolog subfamily A member 1 (P31689 whole entry): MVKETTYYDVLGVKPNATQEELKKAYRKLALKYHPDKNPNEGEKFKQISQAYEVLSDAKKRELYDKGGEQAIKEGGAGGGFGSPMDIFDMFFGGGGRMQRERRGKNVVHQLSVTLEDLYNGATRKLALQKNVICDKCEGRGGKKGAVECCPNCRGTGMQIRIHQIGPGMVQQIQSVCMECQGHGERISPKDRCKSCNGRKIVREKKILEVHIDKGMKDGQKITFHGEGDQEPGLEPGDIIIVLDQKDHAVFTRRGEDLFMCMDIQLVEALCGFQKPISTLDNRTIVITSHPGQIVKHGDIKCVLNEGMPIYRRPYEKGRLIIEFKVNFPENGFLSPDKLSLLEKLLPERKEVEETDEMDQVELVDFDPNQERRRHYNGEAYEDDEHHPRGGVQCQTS
In experiment [4] the target is Mitogen-activated protein kinase kinase kinase kinase 1 (Homo sapiens, UniProt Q92918).
Chain of Mitogen-activated protein kinase kinase kinase kinase 1 (Q92918 whole entry): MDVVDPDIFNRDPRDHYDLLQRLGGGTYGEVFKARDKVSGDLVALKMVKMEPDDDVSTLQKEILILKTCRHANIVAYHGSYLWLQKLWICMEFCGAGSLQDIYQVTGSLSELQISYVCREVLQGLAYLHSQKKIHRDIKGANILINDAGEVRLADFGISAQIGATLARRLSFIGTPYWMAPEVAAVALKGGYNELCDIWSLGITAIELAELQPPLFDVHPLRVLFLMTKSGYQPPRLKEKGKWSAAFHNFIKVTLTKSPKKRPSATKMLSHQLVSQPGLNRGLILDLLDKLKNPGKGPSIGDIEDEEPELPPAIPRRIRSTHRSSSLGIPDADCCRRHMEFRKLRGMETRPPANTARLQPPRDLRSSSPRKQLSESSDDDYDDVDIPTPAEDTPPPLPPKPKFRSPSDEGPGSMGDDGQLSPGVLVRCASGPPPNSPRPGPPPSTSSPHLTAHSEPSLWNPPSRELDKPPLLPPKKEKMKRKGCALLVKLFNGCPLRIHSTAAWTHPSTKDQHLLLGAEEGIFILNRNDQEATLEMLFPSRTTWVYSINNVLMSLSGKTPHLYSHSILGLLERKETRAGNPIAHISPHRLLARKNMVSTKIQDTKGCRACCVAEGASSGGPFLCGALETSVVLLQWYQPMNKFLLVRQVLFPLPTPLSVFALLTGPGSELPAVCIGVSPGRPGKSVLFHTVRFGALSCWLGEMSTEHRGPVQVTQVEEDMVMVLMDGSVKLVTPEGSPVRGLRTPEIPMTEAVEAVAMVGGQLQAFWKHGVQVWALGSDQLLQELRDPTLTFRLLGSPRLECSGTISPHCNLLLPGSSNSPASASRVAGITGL
The target in experiment [5] is T3, Mitogen-activated protein kinase kinase kinase kinase 2 (Homo sapiens, UniProt Q12851).
T3 sequence (Q12851 whole entry): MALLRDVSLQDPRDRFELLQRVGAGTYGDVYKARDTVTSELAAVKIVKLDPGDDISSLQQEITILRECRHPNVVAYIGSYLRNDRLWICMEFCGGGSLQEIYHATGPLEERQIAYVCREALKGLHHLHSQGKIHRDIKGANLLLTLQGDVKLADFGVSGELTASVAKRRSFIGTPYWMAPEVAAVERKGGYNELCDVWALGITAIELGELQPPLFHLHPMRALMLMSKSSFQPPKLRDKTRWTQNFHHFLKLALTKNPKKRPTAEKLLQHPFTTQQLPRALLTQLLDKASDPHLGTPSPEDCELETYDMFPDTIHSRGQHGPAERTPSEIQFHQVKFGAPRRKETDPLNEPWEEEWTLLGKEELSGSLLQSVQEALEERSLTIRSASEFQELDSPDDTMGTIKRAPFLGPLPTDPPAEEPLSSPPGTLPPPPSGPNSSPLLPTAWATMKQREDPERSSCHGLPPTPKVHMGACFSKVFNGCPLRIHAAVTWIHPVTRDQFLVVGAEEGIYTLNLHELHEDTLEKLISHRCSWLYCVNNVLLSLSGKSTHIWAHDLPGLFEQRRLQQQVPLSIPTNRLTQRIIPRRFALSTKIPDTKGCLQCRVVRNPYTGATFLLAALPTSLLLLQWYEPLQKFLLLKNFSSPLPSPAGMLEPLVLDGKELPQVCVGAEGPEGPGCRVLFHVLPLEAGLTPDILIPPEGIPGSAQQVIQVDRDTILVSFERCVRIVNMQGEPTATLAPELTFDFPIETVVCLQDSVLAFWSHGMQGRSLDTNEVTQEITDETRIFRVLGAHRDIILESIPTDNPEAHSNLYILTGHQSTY

Experiment [6] concerns the target Mitogen-activated protein kinase 7 (Homo sapiens, UniProt Q13164).
Experiment [7] has as its target T4, MAP kinase-activated protein kinase 5 (Homo sapiens, UniProt Q8IW41).
T4 sequence (Q8IW41 whole entry): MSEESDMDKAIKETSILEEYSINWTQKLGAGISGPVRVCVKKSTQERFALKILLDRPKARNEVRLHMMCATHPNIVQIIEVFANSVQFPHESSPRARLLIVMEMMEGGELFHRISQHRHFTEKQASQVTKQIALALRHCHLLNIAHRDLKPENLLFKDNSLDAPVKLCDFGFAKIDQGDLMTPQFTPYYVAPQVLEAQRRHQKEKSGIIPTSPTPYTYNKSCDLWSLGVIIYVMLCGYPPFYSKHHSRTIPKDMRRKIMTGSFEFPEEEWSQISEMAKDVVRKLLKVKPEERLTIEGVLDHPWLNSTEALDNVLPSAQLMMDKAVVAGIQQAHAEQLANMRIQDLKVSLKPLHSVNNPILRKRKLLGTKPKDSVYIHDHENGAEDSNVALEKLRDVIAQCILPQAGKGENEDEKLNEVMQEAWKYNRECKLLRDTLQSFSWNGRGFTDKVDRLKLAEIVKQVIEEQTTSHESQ

Experiment [8] deals with Ribosomal protein S6 kinase alpha-1 (Homo sapiens, UniProt Q15418).
Chain of Ribosomal protein S6 kinase alpha-1 (Q15418 whole entry): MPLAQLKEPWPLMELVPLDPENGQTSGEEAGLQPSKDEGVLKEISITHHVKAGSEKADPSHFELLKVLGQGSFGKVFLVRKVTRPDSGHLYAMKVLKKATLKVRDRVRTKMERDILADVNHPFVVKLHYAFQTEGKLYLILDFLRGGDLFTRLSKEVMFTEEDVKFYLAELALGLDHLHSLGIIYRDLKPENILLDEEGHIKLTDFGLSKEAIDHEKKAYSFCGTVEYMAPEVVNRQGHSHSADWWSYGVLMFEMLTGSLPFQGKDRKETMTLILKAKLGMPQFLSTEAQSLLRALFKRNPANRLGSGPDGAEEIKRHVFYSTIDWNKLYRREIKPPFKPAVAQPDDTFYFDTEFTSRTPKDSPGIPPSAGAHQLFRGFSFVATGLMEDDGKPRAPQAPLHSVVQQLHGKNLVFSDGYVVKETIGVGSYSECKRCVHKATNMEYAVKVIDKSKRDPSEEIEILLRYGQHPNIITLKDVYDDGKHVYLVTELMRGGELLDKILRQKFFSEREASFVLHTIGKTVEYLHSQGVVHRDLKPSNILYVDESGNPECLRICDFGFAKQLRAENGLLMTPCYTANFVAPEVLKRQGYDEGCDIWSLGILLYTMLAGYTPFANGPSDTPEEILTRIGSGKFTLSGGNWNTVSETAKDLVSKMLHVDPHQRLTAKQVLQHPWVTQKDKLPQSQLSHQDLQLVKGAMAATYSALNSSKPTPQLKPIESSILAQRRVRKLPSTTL
For experiment [9], the target named is U5 small nuclear ribonucleoprotein 200 kDa helicase (Homo sapiens, UniProt O75643).
Chain of U5 small nuclear ribonucleoprotein 200 kDa helicase (O75643 whole entry): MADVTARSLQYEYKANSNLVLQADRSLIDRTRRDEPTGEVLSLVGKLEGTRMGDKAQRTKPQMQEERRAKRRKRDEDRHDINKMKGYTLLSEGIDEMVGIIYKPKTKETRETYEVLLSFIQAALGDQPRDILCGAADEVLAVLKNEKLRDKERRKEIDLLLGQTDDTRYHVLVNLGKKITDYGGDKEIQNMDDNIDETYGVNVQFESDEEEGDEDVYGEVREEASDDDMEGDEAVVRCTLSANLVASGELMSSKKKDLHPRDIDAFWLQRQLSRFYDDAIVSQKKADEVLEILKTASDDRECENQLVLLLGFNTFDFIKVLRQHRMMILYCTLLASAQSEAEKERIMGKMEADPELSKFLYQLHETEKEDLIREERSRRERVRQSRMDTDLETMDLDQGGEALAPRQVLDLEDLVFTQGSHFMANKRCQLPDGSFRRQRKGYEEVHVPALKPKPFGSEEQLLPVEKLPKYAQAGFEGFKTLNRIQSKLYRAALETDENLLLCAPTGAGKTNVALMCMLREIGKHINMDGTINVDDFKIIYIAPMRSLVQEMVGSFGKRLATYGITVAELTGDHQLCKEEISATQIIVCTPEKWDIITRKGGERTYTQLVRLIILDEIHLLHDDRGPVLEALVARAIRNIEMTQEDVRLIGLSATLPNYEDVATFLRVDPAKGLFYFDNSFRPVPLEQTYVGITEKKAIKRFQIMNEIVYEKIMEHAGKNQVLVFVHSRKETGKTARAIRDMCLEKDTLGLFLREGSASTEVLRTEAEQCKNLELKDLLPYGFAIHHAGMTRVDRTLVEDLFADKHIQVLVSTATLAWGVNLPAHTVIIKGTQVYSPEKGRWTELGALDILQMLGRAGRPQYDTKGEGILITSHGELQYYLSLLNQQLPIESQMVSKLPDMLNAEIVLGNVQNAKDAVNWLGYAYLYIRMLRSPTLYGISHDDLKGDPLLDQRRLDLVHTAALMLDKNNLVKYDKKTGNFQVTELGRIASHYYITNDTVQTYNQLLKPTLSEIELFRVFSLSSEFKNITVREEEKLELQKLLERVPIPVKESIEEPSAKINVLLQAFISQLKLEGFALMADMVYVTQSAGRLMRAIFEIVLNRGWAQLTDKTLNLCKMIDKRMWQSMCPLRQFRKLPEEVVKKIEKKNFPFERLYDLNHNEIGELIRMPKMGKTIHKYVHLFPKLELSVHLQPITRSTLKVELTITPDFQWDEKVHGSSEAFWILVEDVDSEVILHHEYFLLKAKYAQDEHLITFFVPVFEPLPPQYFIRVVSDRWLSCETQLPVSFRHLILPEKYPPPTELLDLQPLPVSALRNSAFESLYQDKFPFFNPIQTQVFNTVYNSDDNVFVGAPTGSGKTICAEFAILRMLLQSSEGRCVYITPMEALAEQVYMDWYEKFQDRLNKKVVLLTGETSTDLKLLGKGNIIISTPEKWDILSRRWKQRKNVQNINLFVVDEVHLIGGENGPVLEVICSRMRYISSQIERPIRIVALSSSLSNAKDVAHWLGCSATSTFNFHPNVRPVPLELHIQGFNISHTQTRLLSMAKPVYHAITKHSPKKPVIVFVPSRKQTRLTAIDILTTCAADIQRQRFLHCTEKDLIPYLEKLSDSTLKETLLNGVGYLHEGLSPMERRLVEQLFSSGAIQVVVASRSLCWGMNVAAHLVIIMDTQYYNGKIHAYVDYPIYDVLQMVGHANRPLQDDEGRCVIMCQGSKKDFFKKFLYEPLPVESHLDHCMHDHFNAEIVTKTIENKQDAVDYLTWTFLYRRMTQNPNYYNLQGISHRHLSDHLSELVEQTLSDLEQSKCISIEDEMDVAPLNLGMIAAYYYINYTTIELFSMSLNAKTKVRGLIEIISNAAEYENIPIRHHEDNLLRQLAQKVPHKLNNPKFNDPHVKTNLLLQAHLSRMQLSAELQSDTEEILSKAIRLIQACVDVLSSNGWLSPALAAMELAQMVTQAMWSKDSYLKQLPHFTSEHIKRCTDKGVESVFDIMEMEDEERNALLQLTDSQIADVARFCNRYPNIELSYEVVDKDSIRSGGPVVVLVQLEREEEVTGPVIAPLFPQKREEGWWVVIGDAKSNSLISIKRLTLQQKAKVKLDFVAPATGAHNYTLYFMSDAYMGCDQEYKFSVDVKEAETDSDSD

Active and inactive are the calls of the source.
Also: in the data inactive means no Kd found up to 30 µM.

Chain of Mitogen-activated protein kinase 7 (Q13164 whole entry): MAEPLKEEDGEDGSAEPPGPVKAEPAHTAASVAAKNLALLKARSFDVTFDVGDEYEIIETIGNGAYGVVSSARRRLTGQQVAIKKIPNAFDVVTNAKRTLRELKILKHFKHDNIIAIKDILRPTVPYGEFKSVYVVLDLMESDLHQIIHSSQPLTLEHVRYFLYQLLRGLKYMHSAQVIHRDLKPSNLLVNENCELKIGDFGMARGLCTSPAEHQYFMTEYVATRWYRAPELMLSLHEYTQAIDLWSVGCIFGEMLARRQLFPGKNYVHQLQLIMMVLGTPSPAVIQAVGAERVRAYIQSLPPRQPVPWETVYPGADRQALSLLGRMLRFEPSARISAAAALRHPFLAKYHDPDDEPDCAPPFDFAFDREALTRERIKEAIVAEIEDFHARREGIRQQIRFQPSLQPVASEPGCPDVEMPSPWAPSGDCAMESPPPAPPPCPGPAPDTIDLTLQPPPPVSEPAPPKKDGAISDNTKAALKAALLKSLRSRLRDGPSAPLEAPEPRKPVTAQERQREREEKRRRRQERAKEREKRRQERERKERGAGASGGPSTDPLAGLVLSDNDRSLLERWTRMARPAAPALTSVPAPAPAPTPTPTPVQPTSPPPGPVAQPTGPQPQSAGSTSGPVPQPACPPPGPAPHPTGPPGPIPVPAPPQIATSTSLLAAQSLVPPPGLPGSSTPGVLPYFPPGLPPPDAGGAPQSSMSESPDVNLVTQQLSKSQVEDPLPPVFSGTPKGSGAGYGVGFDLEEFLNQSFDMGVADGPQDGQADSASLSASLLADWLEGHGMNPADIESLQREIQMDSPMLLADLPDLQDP

As for `COc1ccc(-c2ccc3ncc4c(c3c2)n(-c2ccc(N3CCNCC3)c(C(F)(F)F)c2)c(=O)n4C)cn1` [BGT-226 FREE BASE], the Kd in experiment [1], in experiment [2], in [3], in experiment [4], in experiment [5] and in experiment [6] was > 30 µM (inactive) each time. Further, the Kd in experiment [7], in experiment [8] and in [9] was > 30 µM (inactive) in each case.
With `CNC(=O)c1ccc(Nc2ncc(C(F)(F)F)c(NCc3nccnc3N(C)S(C)(=O)=O)n2)cc1` [DEFACTINIB], the Kd (in general, a measure of binding affinity in units of concentration) in experiment [1] is > 30 µM (inactive); in [2], > 30 µM (inactive); in experiment [3], > 30 µM (inactive); in [4] it was 3.13 µM (active); in experiment [5], > 30 µM (inactive); in experiment [6], > 30 µM (inactive). Moreover, the Kd in [7], in [8] and in experiment [9] was > 30 µM (inactive) in each case.
As to `Cc1cc(C(=O)Nc2cc(Oc3ccc4nc(NC(=O)C5CC5)cn4n3)ccc2C)n(C)n1` [TAK-593], the Kd in experiment [1], in [2], in experiment [3], in experiment [4], in experiment [5] and in [6] was > 30 µM (inactive) each time. The Kd in experiment [7], in experiment [8] and in [9] was > 30 µM (inactive) each time.
Take `O=S(=O)(c1cccc2c(O)nccc12)N1CCCNCC1` [HYDROXYFASUDIL]: the Kd in [1], in experiment [2], in experiment [3], in [4], in experiment [5] and in experiment [6] was > 30 µM (inactive) in each case. Also, the Kd in [7], in [8] and in experiment [9] was > 30 µM (inactive) throughout.
As to `CCN1CCN(Cc2ccc(Nc3ncc(F)c(-c4cc(F)c5nc(C)n(C(C)C)c5c4)n3)nc2)CC1` [ABEMACICLIB], the Kd in experiment [1], in [2], in experiment [3], in experiment [4], in [5] and in [6] was > 30 µM (inactive) each time. Further, the Kd in experiment [7], in experiment [8] and in [9] was > 30 µM (inactive) throughout.
For `C=CC(=O)Nc1cccc(Nc2nc(Nc3ccc(N4CCN(C(C)=O)CC4)cc3OC)ncc2C(F)(F)F)c1` [ROCILETINIB], the Kd in [1], in experiment [2], in [3], in experiment [4], in [5] and in experiment [6] was > 30 µM (inactive) in each case. In addition, the Kd in experiment [7], in experiment [8] and in experiment [9] was > 30 µM (inactive) throughout.
For the compound `Cc1c(Cn2c(C)nc3c(C(=O)O)cc(N4CCOCC4)cc32)cccc1C(F)(F)F` [GSK-2636771], the Kd in experiment [1], in experiment [2], in [3], in experiment [4], in experiment [5] and in experiment [6] was > 30 µM (inactive) each time. Also, the Kd in experiment [7], in experiment [8] and in experiment [9] was > 30 µM (inactive) in each case.
In the case of `COc1cc2ncnc(Nc3ccc(O)cc3)c2cc1OC` [WHI-P131], the Kd in [1], in experiment [2], in experiment [3], in experiment [4], in experiment [5] and in [6] was > 30 µM (inactive) in each case. The Kd in experiment [7], in experiment [8] and in experiment [9] was > 30 µM (inactive) in each case.
With `Cn1c(=O)c(F)c(Nc2ccc(I)cc2F)c2c(=O)n(C[C@@H](O)CO)cnc21` [TAK-733], the Kd in [1], in [2], in experiment [3], in experiment [4], in experiment [5] and in [6] was > 30 µM (inactive) each time. Moreover, the Kd in experiment [7], in experiment [8] and in experiment [9] was > 30 µM (inactive) each time.
For the compound `COc1cccc(Nc2ncnn3ccc(CN4CC[C@@H](N)[C@H](O)C4)c23)c1` [BMS-690514], the Kd in [1], in [2], in experiment [3], in [4], in experiment [5] and in experiment [6] was > 30 µM (inactive) throughout. Moreover, the Kd in experiment [7], in experiment [8] and in experiment [9] was > 30 µM (inactive) in each case.
In the case of `S=C(NCc1ccc2c(c1)OCO2)N1CCN(c2ncnc3c2oc2ccccc23)CC1` [AMUVATINIB], the Kd in experiment [1], in experiment [2], in [3], in [4], in experiment [5] and in experiment [6] was > 30 µM (inactive) each time. Besides, the Kd in [7], in [8] and in experiment [9] was > 30 µM (inactive) throughout.
